Measurements reported in patent US6514963B2, “Methods for the inhibition of egg production in trematodes” (The Regents of the University of California, priority 2000, dated 2003).

Assays:
[1] = target: T1, L channels of isolated skeletal muscle (Oryctolagus cuniculus, UniProt P07293); details: read-out: concentration of calcium required for 50% inhibition (Ki) of verapamil binding; isolated skeletal muscle (Galizzi et al. 1984); cited from earlier work
T1 construct: host or cells: isolated skeletal muscle
T1 sequence (P07293 whole entry): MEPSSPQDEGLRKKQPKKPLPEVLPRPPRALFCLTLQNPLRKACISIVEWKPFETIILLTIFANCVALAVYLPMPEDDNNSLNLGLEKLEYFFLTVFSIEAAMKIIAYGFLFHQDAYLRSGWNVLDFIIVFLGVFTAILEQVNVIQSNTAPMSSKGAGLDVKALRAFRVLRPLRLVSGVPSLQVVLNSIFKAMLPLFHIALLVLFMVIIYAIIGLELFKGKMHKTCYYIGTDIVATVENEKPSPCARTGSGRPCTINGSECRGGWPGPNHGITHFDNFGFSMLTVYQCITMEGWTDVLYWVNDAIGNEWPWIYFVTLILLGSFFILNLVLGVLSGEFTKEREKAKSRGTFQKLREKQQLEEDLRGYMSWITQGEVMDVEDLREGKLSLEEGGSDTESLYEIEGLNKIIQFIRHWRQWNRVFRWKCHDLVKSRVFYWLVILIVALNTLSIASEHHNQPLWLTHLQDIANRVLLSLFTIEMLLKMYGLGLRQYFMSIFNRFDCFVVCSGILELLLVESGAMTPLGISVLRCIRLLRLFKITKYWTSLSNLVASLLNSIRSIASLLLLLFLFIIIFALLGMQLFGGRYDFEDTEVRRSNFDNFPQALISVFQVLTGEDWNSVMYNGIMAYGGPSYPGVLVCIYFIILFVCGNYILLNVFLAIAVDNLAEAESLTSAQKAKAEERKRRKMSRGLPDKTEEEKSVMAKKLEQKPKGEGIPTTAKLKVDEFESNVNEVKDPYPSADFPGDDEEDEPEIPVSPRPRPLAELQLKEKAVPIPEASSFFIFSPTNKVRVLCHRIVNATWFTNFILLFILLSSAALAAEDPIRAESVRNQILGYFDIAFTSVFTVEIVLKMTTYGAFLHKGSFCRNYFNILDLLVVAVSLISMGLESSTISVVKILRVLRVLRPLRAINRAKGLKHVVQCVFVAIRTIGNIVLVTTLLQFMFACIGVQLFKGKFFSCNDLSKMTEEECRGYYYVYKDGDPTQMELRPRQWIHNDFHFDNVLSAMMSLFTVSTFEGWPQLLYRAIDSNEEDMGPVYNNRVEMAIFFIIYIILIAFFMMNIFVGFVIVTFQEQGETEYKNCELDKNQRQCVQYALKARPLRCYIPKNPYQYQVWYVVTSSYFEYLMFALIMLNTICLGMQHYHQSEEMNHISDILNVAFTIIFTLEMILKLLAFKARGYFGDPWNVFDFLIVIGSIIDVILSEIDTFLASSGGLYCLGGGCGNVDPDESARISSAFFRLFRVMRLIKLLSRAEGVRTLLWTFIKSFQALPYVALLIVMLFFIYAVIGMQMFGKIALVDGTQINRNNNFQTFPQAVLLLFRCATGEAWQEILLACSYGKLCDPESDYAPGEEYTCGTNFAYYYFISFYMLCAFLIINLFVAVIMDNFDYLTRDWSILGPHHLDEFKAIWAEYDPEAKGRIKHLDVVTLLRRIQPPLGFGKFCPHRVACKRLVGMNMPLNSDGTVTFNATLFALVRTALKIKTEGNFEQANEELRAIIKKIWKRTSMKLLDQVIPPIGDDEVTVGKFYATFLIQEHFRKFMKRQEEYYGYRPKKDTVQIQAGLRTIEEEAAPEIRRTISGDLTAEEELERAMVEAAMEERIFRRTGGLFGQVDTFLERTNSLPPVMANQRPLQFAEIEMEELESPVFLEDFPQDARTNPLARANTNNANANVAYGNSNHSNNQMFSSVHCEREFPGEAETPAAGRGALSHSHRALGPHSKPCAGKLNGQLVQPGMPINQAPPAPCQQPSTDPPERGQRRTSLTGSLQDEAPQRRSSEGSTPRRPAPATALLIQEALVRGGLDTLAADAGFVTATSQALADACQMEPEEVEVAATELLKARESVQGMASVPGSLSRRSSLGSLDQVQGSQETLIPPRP
T1 sequence (P13806 27-960 partner limits assumed): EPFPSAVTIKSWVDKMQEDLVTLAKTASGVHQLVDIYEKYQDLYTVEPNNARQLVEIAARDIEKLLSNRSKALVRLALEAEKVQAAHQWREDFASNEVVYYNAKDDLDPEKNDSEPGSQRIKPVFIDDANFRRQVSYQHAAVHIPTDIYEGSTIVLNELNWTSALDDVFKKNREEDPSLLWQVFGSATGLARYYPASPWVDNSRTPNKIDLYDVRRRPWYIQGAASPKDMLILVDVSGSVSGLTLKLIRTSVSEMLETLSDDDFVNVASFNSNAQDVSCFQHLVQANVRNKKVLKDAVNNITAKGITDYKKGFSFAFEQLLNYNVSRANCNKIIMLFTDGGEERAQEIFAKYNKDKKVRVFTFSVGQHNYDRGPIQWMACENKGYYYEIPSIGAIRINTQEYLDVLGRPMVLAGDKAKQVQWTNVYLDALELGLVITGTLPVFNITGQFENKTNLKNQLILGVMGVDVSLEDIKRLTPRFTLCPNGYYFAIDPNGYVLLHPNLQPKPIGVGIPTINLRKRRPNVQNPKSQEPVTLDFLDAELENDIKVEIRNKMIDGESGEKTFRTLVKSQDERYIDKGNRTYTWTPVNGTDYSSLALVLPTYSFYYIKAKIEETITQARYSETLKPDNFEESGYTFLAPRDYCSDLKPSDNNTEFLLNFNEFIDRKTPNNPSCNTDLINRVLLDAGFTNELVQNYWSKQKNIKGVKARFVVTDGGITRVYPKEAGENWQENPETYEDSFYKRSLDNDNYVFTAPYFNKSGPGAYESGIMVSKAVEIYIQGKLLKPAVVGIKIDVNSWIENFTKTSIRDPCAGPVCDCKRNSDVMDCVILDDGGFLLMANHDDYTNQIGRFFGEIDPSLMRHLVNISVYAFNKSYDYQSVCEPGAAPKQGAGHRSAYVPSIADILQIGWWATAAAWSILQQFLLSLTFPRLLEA
T1 sequence (P13806 961-1106 partner limits assumed): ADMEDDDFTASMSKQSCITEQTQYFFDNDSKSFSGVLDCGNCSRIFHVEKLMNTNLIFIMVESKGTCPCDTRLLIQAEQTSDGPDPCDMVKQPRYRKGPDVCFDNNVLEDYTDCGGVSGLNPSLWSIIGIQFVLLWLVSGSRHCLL
T1 sequence (P19517 whole entry partner): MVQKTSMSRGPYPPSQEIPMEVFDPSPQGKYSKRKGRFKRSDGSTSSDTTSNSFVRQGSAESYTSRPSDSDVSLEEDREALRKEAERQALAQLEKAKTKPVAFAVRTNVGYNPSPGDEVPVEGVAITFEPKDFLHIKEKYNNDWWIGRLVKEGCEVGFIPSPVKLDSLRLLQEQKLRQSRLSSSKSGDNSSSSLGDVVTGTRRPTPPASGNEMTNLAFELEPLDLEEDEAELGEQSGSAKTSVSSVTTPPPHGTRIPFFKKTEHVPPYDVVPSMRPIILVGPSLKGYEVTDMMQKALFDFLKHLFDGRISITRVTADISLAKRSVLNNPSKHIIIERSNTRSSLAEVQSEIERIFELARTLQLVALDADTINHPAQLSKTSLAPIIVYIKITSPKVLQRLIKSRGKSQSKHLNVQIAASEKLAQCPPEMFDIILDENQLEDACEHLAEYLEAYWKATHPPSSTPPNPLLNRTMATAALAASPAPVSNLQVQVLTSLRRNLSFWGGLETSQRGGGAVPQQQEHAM
T1 sequence (P19518 whole entry partner): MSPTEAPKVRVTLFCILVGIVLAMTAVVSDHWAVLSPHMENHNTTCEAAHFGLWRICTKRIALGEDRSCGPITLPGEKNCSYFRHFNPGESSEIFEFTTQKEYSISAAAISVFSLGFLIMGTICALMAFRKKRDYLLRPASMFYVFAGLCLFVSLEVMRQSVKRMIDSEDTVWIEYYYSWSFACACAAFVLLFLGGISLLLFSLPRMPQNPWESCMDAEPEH

Echinostoma caproni = details: elevated concentrations (microgram range: verapamil 50-200, nifedipine 25-200, diltiazem 5-50 μg/ml), 24 hours, ANOVA
Schistosoma mansoni = Schistosoma mansoni in vitro egg production, eight day culture of worm pairs; format: cell-based

[Ca] [calcium]
Ki [1]: ~300 µM

COc1ccc(CCN(C)CCCC(C#N)(c2ccc(OC)c(OC)c2)C(C)C)cc1OC (stereo not drawn) [verapamil, α-[3-[[2-(3,4-dimethoxyphenyl)ethyl]methyl-amine]propyl]-3,4-dimethoxy-α-(1-methylethyl)-benzeneacetonitrile]
effect on egg production compared to controls (Echinostoma caproni): significantly inhibited | effect on proportion of worms which did not produce eggs until after 48 hours of culture (Schistosoma mansoni; 0.25 μg/ml): not | effect on proportion of worms producing eggs in the three production categories (Schistosoma mansoni; 0.25 μg/ml and 2.5 μg/ml, Chi Square 4.15, p=0.386): did not significantly affect | effect on proportion of worms which did not produce eggs until after 48 hours of culture (Schistosoma mansoni; 2.5 μg/ml, Fisher's exact test, p=0.013): significantly increased | decrease in the total number of eggs produced by all worms of the treatment group (Schistosoma mansoni; 2.5 μg/ml, eight days): 38% | worms in the highest egg-production category (Schistosoma mansoni; 2.5 μg/ml, control worms 34%): 15% | proportion of non-producers (Schistosoma mansoni; 25 μg/ml as printed, control worms 17%): 30% | effect on proportion of non-producers, pairwise comparison with control (Schistosoma mansoni; 50 μg, Fisher Exact test, 2-tailed, p<0.0001): significantly affected egg production | decrease in the total number of eggs produced by all worms of the treatment group (Schistosoma mansoni; 50 μg/ml, eight days): 100% | egg production (Schistosoma mansoni; 50 μg/ml, eight days): no eggs were produced at any time | number of worms producing eggs 48+ Hours (Schistosoma mansoni; verapamil 0.25 μg/ml): 8 | number of worms producing eggs within 48 Hours (Schistosoma mansoni; verapamil 0.25 μg/ml): 24 | number of worms producing eggs 48+ Hours (Schistosoma mansoni; verapamil 2.5 μg/ml): 14 | number of worms producing eggs within 48 Hours (Schistosoma mansoni; verapamil 2.5 μg/ml): 14 | number of worms producing eggs 48+ Hours (Schistosoma mansoni; verapamil 50 μg/ml): 0 | number of worms producing eggs within 48 Hours (Schistosoma mansoni; verapamil 50 μg/ml): 0
